Read-outs that look alike come from different tables or passages of the source.
How the values were obtained:
[1] = system: TGFβ-induced migration of A549 cells; test: Wound-healing assay; assay type: cell-based; conditions: 5 μM compound, TGFβ 10 ng/ml, A549 NucLight Red
Method: Briefly, A549 NucLight Red cells were seeded in 96-well plates (Greiner, Cat# 655087) at 40000 cells/well in RPMI 1640 media supplemented with 10% FBS and 1% antibiotics. After 24 h, a wound scratch was created in the confluent cell monolayer using a 96-well woundmaker (Sartorius), followed by washing three times with PBS. Then, the medium was replaced with RPMI 1640 medium without FBS. TGFβ (10 ng/ml), GA (5 μM), or GNA (5 μM) was added at the indicated concentrations. After 24 h of treatment, the plates were imaged using the ImageXpress Micro High-Content Imaging System (Molecular Device). The wound-healing activity was quantified by measuring the width (W) of the wound using ImageJ and expressed as […] × 100.

[2] = molecular target: T1, SMAD4–SMAD3 MH2 domain PPI (Homo sapiens, UniProt P84022+Q13485); test: GST pull-down assay, SMAD4–SMAD3 MH2 domains; assay type: binding
T1 construct: GST-SMAD4-MH2 and VF-SMAD3-MH2 (C and D); expressed in transfected cells; host or cells: HEK293T (lysate)
Method: (§1) To validate the hits from the pilot screening, we performed the orthogonal GST pull-down assay using cell lysates from HEK293T cells transfected with Venus-flag-SMAD3 and GST-SMAD4 or Venus-flag-SMAD3-MH2 and GST-SMAD4-MH2. After 48 h of transfection, the cells were lysed in 1% NP-40 lysis buffer, incubated with compounds for 16 h with rotation at 4°C, and then incubated with glutathione-conjugated beads (GE 17527901) for 2 h at 4°C. Beads were washed twice with 1% NP-40 lysis buffer, eluted by boiling in sodium dodecyl sulfate (SDS) sample buffer (Bio-Rad), and subjected to western blot analysis. Proteins in SDS sample buffer were resolved by 10% SDS polyacrylamide gel electrophoresis and transferred to nitrocellulose filter membranes at 100 V for 2 h at 4°C. After blocking in 5% nonfat dry milk in TBST (20 mM Tris-base, 150 mM NaCl, and 0.05% Tween 20) for 1 h at room temperature, the membranes were blotted with the indicated antibodies, mouse monoclonal anti-FLAG-HRP antibody (Sigma‒Aldrich, # A8592) and rabbit polyclonal anti-GST-HRP antibody (Sigma‒Aldrich, Cat# A7340), at 4°C overnight. The membranes were washed three times with 1× TBST for 15 min. […] Luminescence images were captured using the ChemiDoc^TM Touch Imaging System (Bio-Rad).

[3] = molecular target: T2, SMAD–SBE4 PDI (SMAD4–SMAD3–DNA complex) (Homo sapiens, UniProt P84022+Q13485); test: Multiplexed TR-FRET assay, Tb–FAM PDI readout (cell lysate-based); assay type: binding; conditions: for inhibition of PDI signal compared to DMSO control, primary screen: 1536-well uHTS, 20 μM, single point
T2 construct: expressed in transfected cells; host or cells: HEK293T (transient co-transfection, lysate used)

SMAD4–SMAD3 PPI = molecular target: T3, SMAD4–SMAD3 PPI (Homo sapiens, UniProt P84022+Q13485); test: Multiplexed TR-FRET assay, Tb–D2 PPI readout (cell lysate-based); assay type: binding; conditions: for inhibition of PPI signal compared to DMSO control, primary screen: 1536-well uHTS, 20 μM, single point
T3 construct: expressed in transfected cells; host or cells: HEK293T (transient co-transfection, lysate used)

[4] = molecular target: T4, full-length SMAD4–SMAD3 PPI (Homo sapiens, UniProt P84022+Q13485); test: GST pull-down assay, full-length SMAD4–SMAD3; assay type: binding
T4 construct: expressed in transfected cells; host or cells: HEK293T (lysate)
Method: as §1

[5] = system: TGFβ-induced SBE4-luc reporter activity in HEK293T cells; test: SBE luciferase reporter assay; assay type: cell-based, Human; conditions: 5 μM compound, TGFβ 10 ng/ml, 18 h
Method: SMAD3/SMAD4 complex transcriptional activity was measured using the SBE-luciferase reporter system. HEK293T cells were used to measure the luciferase activity. Cells were plated in 6-well plates and co-transfected with SBE4-Luc plasmid (1 μg, Addgene, 16495) and pDEST26-Renilla plasmid (0.1 μg) using FuGENE® HD (Promega, #E2312). After 24 h of transfection, the cells were pre-treated with GA (MedChemExpress, #HY-N0087) or GNA (MedChemExpress, #HY-5024) at 5 μM for 6 h followed by TGFβ (10 ng/ml, R&D Systems, #240-B) stimulation for an additional 18 h. Renilla and firefly luciferase activities were measured by an Envision Multilabel plate reader (PerkinElmer) using a Dual-Glo luciferase kit (Promega, Cat# E2920) according to the manufacturer's instructions. The normalized luminescence was calculated as the ratio of the luminescence of firefly luciferase over the luminescence of Renilla luciferase.

T2 sequence (Q13485 whole entry): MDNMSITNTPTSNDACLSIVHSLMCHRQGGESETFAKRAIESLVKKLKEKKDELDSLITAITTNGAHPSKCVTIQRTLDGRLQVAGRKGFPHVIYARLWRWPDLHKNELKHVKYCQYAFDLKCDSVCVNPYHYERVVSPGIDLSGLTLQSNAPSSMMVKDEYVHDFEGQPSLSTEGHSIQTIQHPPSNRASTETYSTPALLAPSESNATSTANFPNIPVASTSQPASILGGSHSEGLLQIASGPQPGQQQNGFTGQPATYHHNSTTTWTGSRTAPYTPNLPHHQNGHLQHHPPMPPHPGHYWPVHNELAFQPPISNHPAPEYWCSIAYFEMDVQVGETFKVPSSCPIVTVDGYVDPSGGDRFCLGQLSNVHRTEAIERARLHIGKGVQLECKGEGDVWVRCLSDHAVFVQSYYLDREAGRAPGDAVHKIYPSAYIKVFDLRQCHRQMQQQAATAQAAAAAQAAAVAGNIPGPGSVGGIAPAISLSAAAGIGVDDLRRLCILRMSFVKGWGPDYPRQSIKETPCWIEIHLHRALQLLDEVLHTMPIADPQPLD
T2 sequence (P84022 whole entry): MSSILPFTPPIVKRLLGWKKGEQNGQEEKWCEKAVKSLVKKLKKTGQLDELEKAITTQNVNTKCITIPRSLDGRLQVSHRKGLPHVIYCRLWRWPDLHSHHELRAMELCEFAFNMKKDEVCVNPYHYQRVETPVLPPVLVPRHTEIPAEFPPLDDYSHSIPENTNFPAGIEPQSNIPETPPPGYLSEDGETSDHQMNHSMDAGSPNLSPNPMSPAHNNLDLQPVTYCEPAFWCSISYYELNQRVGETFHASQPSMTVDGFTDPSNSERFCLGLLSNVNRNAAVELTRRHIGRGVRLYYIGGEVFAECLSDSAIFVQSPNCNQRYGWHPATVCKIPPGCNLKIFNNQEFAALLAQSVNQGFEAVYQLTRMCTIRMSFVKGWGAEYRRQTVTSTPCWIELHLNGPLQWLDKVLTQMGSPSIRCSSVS
T3 sequence (Q13485 whole entry): as the sequence (Q13485 whole entry) above
T3 sequence (P84022 whole entry): as the sequence (P84022 whole entry) above
T1 sequence (Q13485 323-552): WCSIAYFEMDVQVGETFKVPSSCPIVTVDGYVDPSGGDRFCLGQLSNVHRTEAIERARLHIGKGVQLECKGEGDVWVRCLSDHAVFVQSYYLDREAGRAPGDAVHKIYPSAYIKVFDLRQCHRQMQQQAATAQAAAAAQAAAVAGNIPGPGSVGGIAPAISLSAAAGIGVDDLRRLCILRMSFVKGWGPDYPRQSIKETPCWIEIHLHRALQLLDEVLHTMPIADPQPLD
T1 sequence (P84022 232-425): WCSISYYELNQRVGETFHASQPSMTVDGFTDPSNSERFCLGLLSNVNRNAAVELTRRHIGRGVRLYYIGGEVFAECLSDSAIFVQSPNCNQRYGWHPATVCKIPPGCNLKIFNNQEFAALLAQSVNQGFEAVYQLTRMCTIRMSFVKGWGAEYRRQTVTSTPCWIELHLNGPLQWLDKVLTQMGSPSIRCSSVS
T4 sequence (Q13485 whole entry): as the sequence (Q13485 whole entry) above
T4 sequence (P84022 whole entry): as the sequence (P84022 whole entry) above

Structure (SMILES)	TGFβ-induced A549 cell migration (wound healing) [1]	IC50 ([2]; GST-SMAD4-MH2 and VF-SMAD3-MH2 lysates, densitometry of western blots, read-out: IC50, inhibition of the PPI of SMAD4–SMAD3 MH2 domains)	inhibition of PDI signal compared to DMSO control, primary screen [3]	IC50 ([3]; TR-FRET dose–response confirmation with re-ordered compounds, 5′-FAM-SBE4 dsDNA, read-out: IC50, decrease in the PDI signal)	inhibition of PPI signal compared to DMSO control, primary screen (SMAD4–SMAD3 PPI)	IC50 (SMAD4–SMAD3 PPI; TR-FRET dose–response confirmation with re-ordered compounds, lysate co-expressing His-SMAD4 and Flag-SMAD3, read-out: IC50, decrease in the PPI signal)	IC50 ([4]; GST-SMAD4 and VF-SMAD3 lysates, densitometry of western blots, read-out: IC50, decrease of SMAD3 protein in the pull-down GST-SMAD4 complex)	TGFβ-induced SBE4-luc activity [5]	IC50 [2]	IC50 [3]	IC50 (SMAD4–SMAD3 PPI)	IC50 [4]
CC(C)=CCC[C@]1(C)C=Cc2c(O)c3c(c(CC=C(C)C)c2O1)O[C@]12C(=C[C@@H]4C[C@H]1C(C)(C)O[C@@]2(C/C=C(/C)C(=O)O)C4=O)C3=O [GA, gambogic acid]	significantly reduced	~11.4 µM	robust inhibitory effects	36 ± 9.4 µM	robust inhibitory effects	4.3 ± 0.5 µM	~11.4 µM	significant reduction				
CC(C)=CCC/C(C)=C/Cc1c(O)c(CC=C(C)C)c2c(c1O)C(=O)C1=C[C@@H]3C[C@H]4C(C)(C)O[C@@](C/C=C(/C)C(=O)O)(C3=O)[C@@]14O2 [GNA, gambogenic acid]	significantly reduced		robust inhibitory effects		robust inhibitory effects			significant reduction	~9 µM	27.6 ± 4.8 µM	6.4 ± 1.6 µM	~8.9 µM

Source: PMC11063955, “A multiplexed time-resolved fluorescence resonance energy transfer ultrahigh-throughput screening assay for targeting the SMAD4–SMAD3–DNA complex” (Journal of Molecular Cell Biology, 2023)
